US7211566B2 (Universite De Sherbrooke, priority 2003, dated 2007)

Experiments:
[1] = blood; details: rat, 37° C., up to 4 hours
[2] = serum; details: rat, 37° C., up to 4 hours
[3] = plasma; details: rat, 37° C., up to 4 hours
[4] = human plasma as a source of aminopeptidase M (AmM); details: up to 60 min
[5] = test system: angiotensin converting enzyme (ACE); assay: Purified ACE from rabbit lungs (Sigma, St. Louis, Mo.) dissolved in PBS (50 mM, pH 7.5, containing 300 mM NaCl and 10 μM ZnCl2); details: 37° C., up to 60 min
[6] = test system: aminopeptidases; details: cited from earlier work
[7] = test system: carboxypeptidases of the M type (CPM); details: cited from earlier work
[8] = test system: carboxypeptidases of the N type (CPN); details: cited from earlier work
[9] = biological target: T1, BKB1 receptor (Homo sapiens, UniProt P46663); details: Gobeil et al. 1996; cited from earlier work
T1 sequence (P46663 1-353): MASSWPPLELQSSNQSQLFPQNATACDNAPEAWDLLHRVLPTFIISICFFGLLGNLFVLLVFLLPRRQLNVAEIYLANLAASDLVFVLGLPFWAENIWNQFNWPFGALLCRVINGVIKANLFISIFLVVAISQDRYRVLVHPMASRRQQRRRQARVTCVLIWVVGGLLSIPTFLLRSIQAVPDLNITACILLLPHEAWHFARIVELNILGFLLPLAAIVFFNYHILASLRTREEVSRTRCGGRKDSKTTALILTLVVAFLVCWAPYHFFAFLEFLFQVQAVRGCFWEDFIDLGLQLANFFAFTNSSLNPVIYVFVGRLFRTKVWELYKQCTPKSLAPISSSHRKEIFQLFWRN

[10] = test system: STZ diabetic mice; assay: Hot plate test, type-1 diabetic hyperalgesia; format: in vivo; details: 400 μg/kg i.p.
Method: (§1) Male CD-1 mice weighting between 25–30 g (Charles River Breeding Laboratory, St-Constant, QC, Canada) were used. The mice were housed four by cage with free access to food and water. They were maintained under conditions of standard lighting, (alternating 12-h light/dark cycle), temperature (22±0.5° C.) and humidity (60±10%) with food and water available at libitum. Animals were used only once in a given experiment. Experiments were conducted between 10:00 and 18:00 h.
(§2) Streptozotocin (Pharmacia & Upjohn Incorporation, Mississauga, ON, Canada) was dissolved in saline at a pH of 4.5 and administered to mice i.p. The BKB1 agonist desArg^9BK and compound c were dissolved in saline and administered to mice i.p.
(§3) Insulin-dependent diabetes mellitus (IDDM) was induced in mice using STZ. Male CD-1 mice were given a single high i.p. dose of STZ (200 mg/kg) (McEvoy et al., 1984, J Clin Invest 74, 715–722). […] Blood glucose levels were determined with an automatic analyzer (Glucometer Elite XL, Bayer Incorporation, Toronto, Ontario, Canada) using glucose oxidase/potassium ferricyanide reagent strips. […]
The hot plate test was adapted from the technique of Eddy and Leimbach (1953, J Pharmacol Exp Ther 107, 385–389). […] When the pain threshold is reached the animal starts to react by licking its hind paw or to jump, and the reaction time is recorded with a built-in timer, with a maximum cut-off time of 30 s to avoid tissue damage. […]
(§4) The effect of the selected drugs on nociception was determined by converting the hot plate, the plantar stimulation, the tail immersion or the tail flick responses from latencies into MPE (Maximum Percent Effect) according to the following equation (Bhargava and Zhao, 1996, Neuropeptides, 30, 219–223): […]
(§5) In all tests, pre-treatment latencies were determined three times with an interval of 24 h starting three days before the injection of STZ or saline and the mean was calculated in order to obtain stable pre-drug response latency. […]

[11] = test system: STZ diabetic mice; assay: Plantar stimulation test, type-1 diabetic hyperalgesia; format: in vivo
Method: as §1, with “h. […]” for “h.”
(§6) Insulin-dependent diabetes mellitus (IDDM) was induced in mice using STZ. […] Blood glucose levels were determined with an automatic analyzer (Glucometer Elite XL, Bayer Incorporation, Toronto, Ontario, Canada) using glucose oxidase/potassium ferricyanide reagent strips. […]
In the plantar stimulation test, the method of Hargreaves et al. (Hargreaves et al., 1988, Pain, 32, 77–88) was used to access the hind-paw nociceptive withdrawal thresholds of a free moving mouse to thermal stimuli. […] Each latency value was determined from two applications of the radiant heat stimulus, separated by 1–2 min intervals, and the mean of the two measures is taken. […]
as §5

[12] = test system: STZ diabetic mice; assay: Tail immersion test, type-1 diabetic hyperalgesia; format: in vivo
Method: as §1, with “h. […]” for “h.”
as §6
The tail-immersion test was performed according to Coderre and Rollman (Coderre and Rollman, 1983, Life Sci 32, 2139–2146). […] The latency between submersion of the tail and its removal from the water by the animal was recorded, with a maximum cut-off time of 10 seconds to minimize tail skin tissue damage. […]
as §4

[13] = test system: STZ diabetic mice; assay: Tail flick test, type-1 diabetic hyperalgesia; format: in vivo
Method: as §1, §2, §3
The tail flick test of D'Amour and Smith (D'Amour and Smith, 1941, J Pharmacol Exp Ther 72, 74–79) modified for mice was used. […] The radiant light is focussed on a blackened spot in the mid region of the animal's tail (2–3 cm from the tip of the tail) and the latency between the application of the stimulation light and the flicking of the animal's tail is recorded. When the animal flicks its tail, its exposes a photocell in the apparatus immediately below the tail and the instrument is automatically stopped and the time is recorded. […]
as §4

Ac-Orn[Oic^2,(α-Me)Phe^5,D-βNal^7,Ile^8]desArg^9BK
not cleaved [1]: >90% parent remaining after 4 hours | not cleaved [2]: >90% parent remaining after 4 hours | not cleaved [3]: >90% parent remaining after 4 hours | not cleaved [4]: Peptide metabolism 0 % (60 min) | not cleaved [5]: Peptide metabolism 0 % (60 min)

Lys Arg Pro Pro Gly Phe Ser Pro Phe Arg
fragment found [6]: BK | cleaved bond [7]: Phe8-Arg9 | cleaved bond [8]: Phe8-Arg9

Lys-desArg^9BK (KRPPGFSPF; Lys - des-Arg9 Bradykinin) [BKB1 receptor agonist]
potency relative to desArg^9BK [9]: 100 fold

desArg^9BK
potentiation of hyperalgesic response ([10]; STZ diabetic mice): 98% | change in nociceptive response ([10]; control mice): did not induce significant changes | MPE ([11]; STZ diabetic mice, 400 μg/kg i.p., 20 min after injection): −21.03±0.75% | change in nociceptive response ([11]; healthy mice): did not induce significant changes | MPE ([12]; STZ diabetic mice, i.p., 20 min after administration): −19.23±0.60% | change in tail immersion latencies ([12]; control mice): did not show significant changes | potentiating effect on hyperalgesic activity ([13]; STZ diabetic mice, maximal after 10 min): 48% | change in tail flick test ([13]; control mice, 400 μg/kg i.p.): did not induce significant changes
